Results: paper PMC4775997, “Imidazopyridazine Inhibitors of Plasmodium falciparum Calcium-Dependent Protein Kinase 1 Also Target Cyclic GMP-Dependent Protein Kinase and Heat Shock Protein 90 To Kill the Parasite at Different Stages of Intracellular Development” (Antimicrobial Agents and Chemotherapy, 2016)
Where two headings read alike, the source gives them in different places.

Key:
[1] = test system: P. falciparum 3D7; assay: SYBR green I growth assay, wild-type parasites; format: cell-based, Plasmodium falciparum; conditions: for EC5048/EC5096 ratio: Table 1
[2] = molecular target: T1, PfPKG (Plasmodium falciparum, UniProt Q8I719); assay: Microfluidic fluorescent shift assay of cGMP-dependent protein kinase activity; format: biochemical; conditions: read-out: Enzyme inhibition IC50, PKG
T1 construct: plasmids (pTrcHisC) encoding full-length PfPKG and PfPKG T618Q with N-terminal His tags; His tag (N); made in house; host or cells: E. coli Rosetta2(DE3)

[3] = molecular target: CDPK1 (Plasmodium falciparum, UniProt P62344); assay: biochemical; format: biochemical; conditions: read-out: Enzyme inhibition IC50, CDPK1
Chain of CDPK1 (P62344 whole entry): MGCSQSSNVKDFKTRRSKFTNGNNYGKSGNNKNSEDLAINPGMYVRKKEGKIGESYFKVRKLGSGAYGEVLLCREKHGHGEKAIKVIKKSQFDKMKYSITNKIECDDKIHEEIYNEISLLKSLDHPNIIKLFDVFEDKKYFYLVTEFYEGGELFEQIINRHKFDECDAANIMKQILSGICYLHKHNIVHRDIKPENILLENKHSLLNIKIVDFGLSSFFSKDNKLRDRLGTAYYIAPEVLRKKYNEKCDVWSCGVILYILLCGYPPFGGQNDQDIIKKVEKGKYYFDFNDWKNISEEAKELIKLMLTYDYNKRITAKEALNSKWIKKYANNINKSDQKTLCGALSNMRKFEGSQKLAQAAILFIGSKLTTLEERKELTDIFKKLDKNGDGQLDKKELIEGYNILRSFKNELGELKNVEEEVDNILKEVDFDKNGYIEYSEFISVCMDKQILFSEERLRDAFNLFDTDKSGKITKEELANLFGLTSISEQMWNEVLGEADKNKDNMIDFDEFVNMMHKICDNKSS

[4] = test system: P. falciparum 3D7; assay: Microscopic examination of Giemsa-stained smears (stage of action); conditions: for Stage of action (before or after DNA synthesis): Table S1, ring-stage parasites, 10x EC50 for 48 h; for Stage of action: ring stage parasites treated with 10 times the 96-h EC50 for 48 h
[5] = molecular target: T2, PfPKG T618Q (Plasmodium falciparum, UniProt Q8I719, T618Q); assay: biochemical; format: biochemical; conditions: for IC50: read-out: Enzyme inhibition IC50, PKG T618Q
T2 construct: plasmids (pTrcHisC) encoding full-length PfPKG and PfPKG T618Q with N-terminal His tags; His tag (N); made in house; host or cells: E. coli Rosetta2(DE3)
T2 sequence (Q8I719 whole entry T618Q): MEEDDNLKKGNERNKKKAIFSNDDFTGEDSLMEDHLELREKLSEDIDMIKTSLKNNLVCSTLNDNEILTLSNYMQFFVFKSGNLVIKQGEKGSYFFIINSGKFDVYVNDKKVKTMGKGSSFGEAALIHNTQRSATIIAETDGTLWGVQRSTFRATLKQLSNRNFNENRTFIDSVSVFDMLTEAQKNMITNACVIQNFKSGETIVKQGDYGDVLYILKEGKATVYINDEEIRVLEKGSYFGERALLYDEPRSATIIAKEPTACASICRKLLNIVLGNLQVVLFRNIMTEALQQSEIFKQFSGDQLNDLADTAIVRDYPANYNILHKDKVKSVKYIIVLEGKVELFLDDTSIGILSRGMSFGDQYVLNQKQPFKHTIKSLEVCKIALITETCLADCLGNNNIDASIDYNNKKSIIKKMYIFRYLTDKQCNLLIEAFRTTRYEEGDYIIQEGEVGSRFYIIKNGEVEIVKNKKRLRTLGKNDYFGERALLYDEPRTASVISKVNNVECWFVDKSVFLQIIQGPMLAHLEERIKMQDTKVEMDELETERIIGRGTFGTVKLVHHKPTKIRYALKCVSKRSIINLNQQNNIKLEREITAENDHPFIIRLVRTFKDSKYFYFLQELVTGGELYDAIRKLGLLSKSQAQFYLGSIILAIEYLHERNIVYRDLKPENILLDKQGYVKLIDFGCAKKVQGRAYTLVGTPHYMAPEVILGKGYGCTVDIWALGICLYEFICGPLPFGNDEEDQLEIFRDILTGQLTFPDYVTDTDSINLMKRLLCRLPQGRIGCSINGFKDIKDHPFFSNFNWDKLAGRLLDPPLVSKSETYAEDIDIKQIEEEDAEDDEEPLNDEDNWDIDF

[6] = test system: 3D7 PKG T618Q; assay: microbe, parasite or virus in culture; format: cell-based, Plasmodium falciparum
[7] = test system: 3D7 CDPK1 T145G-HA; assay: SYBR green assay, 3D7 CDPK1 T145G-HA line; format: cell-based; conditions: Plasmodium falciparum, 3D7, read-out: EC50, 3D7 CDPK1 T145G-HA
Description: (§1) Aliquots of 100 μl of P. falciparum cultures 24 h after erythrocyte invasion were transferred into 96-well culture dishes. Cells were incubated with inhibitors for 48 or 96 h (starting parasitemias were 0.3% and 0.03%, respectively). All drug treatments were carried out in duplicate at a final dimethyl sulfoxide (DMSO) concentration of 0.05%. After incubation, a modification of a previously described SYBR green assay was performed ([27]). Cells were lysed by the addition of 25 μl of buffer (20 mM Tris-HCl, pH 8.0, 2 mM EDTA, pH 8.0, 1.6% Triton X-100, 0.16% saponin, 10× SYBR green I [Life Technologies]). After incubation in the dark for 2 h, fluorescence of the samples was determined using a FLUOStar Omega plate reader (BMG Labtech) with excitation and emission filters of 485 nm and 520 nm, respectively. EC50s were calculated from a four-parameter logistical fit of the data using Prism software (GraphPad Software, Inc.).
(§2) Parasites expressing CDPK1 T145G and CDPK1 T145T were generated as described previously ([28]). Briefly, a region of homology to facilitate integration of the plasmid via single-crossover homologous recombination was amplified from P. falciparum 3D7 genomic DNA at 194 bp upstream of the ATG to bp 435 of the open reading frame using primers 1 and 2 for the wild-type (WT) version and primers 1 and 3 for the glycine version. […]

[8] = test system: 3D7 CDPK1 T145T-HA; assay: SYBR green assay, 3D7 CDPK1 T145T-HA line; format: cell-based; conditions: Plasmodium falciparum, 3D7, read-out: EC50, 3D7 CDPK1 T145T-HA
Description: as §1, §2

[9] = SYBR green I, 48 h incubation, mean of three independent experiments (SD), read-out: EC50 after treatment for 48 h
[10] = SYBR green I, 96 h incubation, mean of three independent experiments (SD), read-out: EC50 after treatment for 96 h
[11] = Table S1, single experiment with duplicate samples, or mean of triplicate experiments (SD), read-out: EC50 96 hours

CC(C)CCNc1ncc(-c2cnc3ccc(NC4CCN(C)C4)nn23)cn1 (stereo not shown) [Compound 31]
EC50 [1, 9]: 1.66 µM | EC50 [1, 10]: 0.238 µM | EC5048/EC5096 ratio [1]: 7.0 | ratio EC5048:EC5096 ([1]; Table S1): 7.0 | EC50 ([1]; Table S1, single experiment with duplicate samples, or mean of triplicate experiments (SD), read-out: EC50 48 hours): 1.66 µM | EC50 [1, 11]: 0.24 µM | IC50 ([2]; Table S2): 0.287 µM | IC50 ([3]; Table S2): 0.093 µM | Stage of action (before or after DNA synthesis) [4]: late schizont | Stage of action [4]: Late schizont | Selectivity PKG T618Q/PKG ([5]; Table S2): 21 | IC50 ([5]; Table S2): 5.95 µM

CN(C)C1CCN(c2ccc3ncc(-c4cnc(Nc5ncccc5F)nc4)n3n2)C1 (stereo not shown) [Compound 35]
EC50 [1, 9]: > 1000 µM | EC50 [1, 10]: 0.809 µM | EC5048/EC5096 ratio [1]: >1,000 | EC50 [1, 11]: 0.81 µM | IC50 ([2]; Table S2): 0.05 µM | IC50 ([3]; Table S2): 0.017 µM | Stage of action (before or after DNA synthesis) [4]: late schizont | Stage of action [4]: Late schizont | Selectivity PKG T618Q/PKG ([5]; Table S2): 10653 | IC50 ([5]; Table S2): 528 µM

CN1CCC(CNc2ccc3ncc(-c4cnc(Nc5ncccc5F)nc4)n3n2)CC1 [Compound 38]
3D7 PKG T618Q/3D7 EC50 ratio ([6]; Table 2): 11.8 | EC50 ([6]; Table 2, SYBR green I, 96 h, single experiment, or mean (SD) of duplicate assays, read-out: Parasite inhibition EC50, 3D7 PKG T618Q): 0.859 µM | Ratio 3D7 PKG T618Q/3D7 ([6]; Table S2): 12 | EC50 [1, 9]: > 1000 µM | EC50 [1, 10]: 0.05 µM | EC5048/EC5096 ratio [1]: >1,000 | EC50 ([1]; Table 2, SYBR green I, 96 h, single experiment, or mean (SD) of duplicate assays, read-out: Parasite inhibition EC50, 3D7): 0.073 µM | IC50 [2]: 0.004 µM | IC50 ([3]; Table 2): 0.008 µM | Stage of action (before or after DNA synthesis) [4]: late schizont | Stage of action [4]: Late schizont | IC50 ([5]; Table 2, ATP at Km 90 μM): 43.5 µM | Selectivity PKG T618Q/PKG ([5]; Table S2): 12187

CC(C)(C)n1nc(Cc2cccc3ccccc23)c2c(N)ncnc21 [NM-PP1, 1-(1,1-dimethylethyl)-3-(1-naphthalenylmethyl)-1H-pyrazolo[3,4-d]pyrimidin-4-amine]
EC50 [7]: 10.3 µM | EC50 [8]: 11.6 µM
